In general, IC50 refers to the midpoint of a concentration-inhibition curve. The inhibition is the change of the read-out against control, counted positive when it falls.

Data on 17 compounds can be found in patent US7067144B2, “Compositions and methods for systemic inhibition of cartilage degradation” (Omeros Corporation, priority 1998, dated 2006).

Series [1] concerns rheumatoid synovial fibroblasts (RSF). The following applies: concentrations of 10–150 μM; IL-1 or IL-8 stimulated; cited from earlier work.
For the next series, the system named is PKC. The following applies: read-out: IC50 PKC inhibitory activity; cited from earlier work.
The subject of a further series is experimental OA. The following applies: sustained systemic delivery; cited from earlier work.
The test system of a further series is NFκB activation. The following applies: IL-1-stimulated RSF; cited from earlier work.
Series [2] deals with adjuvant-induced arthritis. To be noted: p.o. at 30 and 60 mg/kg/day; cited from earlier work.
For another series, the system named is paw inflammation. To be noted: dose of 50 mg/kg; cited from earlier work.
For series [3], the system named is prostaglandin E2 production in synovial cultures. Briefly: PGE2 formation in cultured human synovial fibroblasts during overnight IL-1 priming. It is filed as cell-based. To be noted: Fibroblast, co-incubation with IL-1 (10 U/ml), 16 hr, mean±SEM. As for the experimental part: (§1) 1. Cell Culture. […] Experiments were performed on cells from passages 3–8. […] The growth medium was replaced twice weekly.
2. Experimental Treatments.
3. Measurement of Prostaglandin E2. […] Samples were stored at −80° until processing.
1. Data analysis. Immunoassays were routinely performed in duplicate aliquots from each culture. Experimental determinations were performed on duplicate or triplicate cultures. Each experiment was repeated in at least two cell lines. Nonlinear regression curve fitting and statistical analyses were performed using Graph-PAD Prism software (San Diego, Calif.).
The actions of ketoprofen, a cyclooxygenase inhibitor, to attenuate PGE2 formation were determined by co-incubation with IL-1 during prolonged exposure (16 hr); and by brief pre-incubation prior to a subsequent GPCR agonist challenge interval, as shown in FIG. 8.

Series [4] has the same test system. To be noted: histamine 100 μM or bradykinin 1 μM; overnight IL-1 (10 U/ml) priming.
Protocol: Cell Culture. Synovial tissue was obtained from osteoarthritis patients undergoing joint replacement surgery through the Clinical Research Center, MacNeal Hospital, and transported to the laboratory in Dulbecco's Modified Eagle's Medium (DMEM) containing penicillin (100 units/ml), streptomycin (100 μg/ml), and fungizone (0.25 μg/ml). The synovium was dissected and minced with scissors, and plated as explants in culture medium composed of DMEM containing L-glutamine (2 mM), heat inactivated fetal bovine serum (10% v/v), plus antibiotics. Cultures were housed at 37° C. in a humidified atmosphere of 5% CO2. Adherent synovial cells grew out of the explants within 2–3 weeks, and were passaged by trypsinization. Seed cultures were fed twice weekly and were passaged at confluency. Experiments were performed on cells from passages 3–8. Experimental cultures were plated into 35 mm dishes at a density of 7.5×10^3 cells/cm^2 in 2 ml culture medium. […]
Measurement of Prostaglandin E2. […] Aliquots of culture supernatant were analyzed by competitive binding radioimmunoassay as specified by the manufacturer (Sigma Chemical Co.), using an antibody with equivalent reactivity toward prostaglandins E2 and E1. For quantitation, a standard curve was prepared with each assay using fixed concentrations of [^3H]prostaglandin E2, and increasing concentrations of authentic competing prostaglandin E2.
Series [5] relates to IL-6 production by synovial cultures. Briefly: IL-6 production by synovial cultures stimulated with IL-1 plus GPCR ligands. The following applies: 0.75 μM ketoprofen. It is filed as cell-based, human. As for the experimental part:
FIG. 9 is a graphical representation of the effect of ketoprofen on IL-6 production by synovial cultures at 16 hours in the presence of the indicated concentrations of IL-1 plus the added G-protein coupled receptor ligands. Cultures were incubated for 16 hours with IL-1 at the indicated concentration (0.3, 1.0 and 3.0 pg/ml) in the absence and presence of 0.75 μM ketoprofen in experimental growth medium with one of the following additional receptor ligands: 1) isoproterenol (ISO) at 1.0 μM to activate the camp pathway, or 2) histamine (HIS) at 100 μM to activate the IP3/calcium pathway. Culture supernatants were collected and replaced with fresh media aliquots containing the same agonist additions at 8 hour intervals. Following treatment, the supernatant medium corresponding to the treatment interval from 8 to 16 hours was collected and analyzed for IL-6.
as §1
4. Measurement of IL-6. Production of the cytokine, IL-6, was also measured in aliquots of supernatant culture media which had been stored frozen at −80° C. IL-6 was measured by sandwich ELISA with alkaline phosphatase detection as described by the manufacturer (Pharmingen) and quantitated using standard curves prepared with the respective pure recombinant human cytokines. […]

For series [6], the system named is IL-8 production by synoviocyte cultures. The experiment in a line: IL-8 production by synoviocyte cultures in response to IL-1. It is filed as cell-based, human. As for the experimental part:
as §1
The kinetics of induction of interleukin-6 in response to stimulation with IL-1 are described. Synoviocyte cultures were exposed to the indicated treatments with IL-1 plus either histamine to activate signaling through inositol trisphosphate (InsP3)/protein kinase C pathway or isproterenol to activate increases in intracellular cAMP. Production of PGE2, IL-6, and IL-8 were measured in the culture supernatants following 1, 2, 4, 6, and 24 hr treatments. In this experiment, each treatment interval was performed in a separate culture. […] IL-1 also produced a significant elevation of IL-8 (2000 pg/ml), which was first measurable at 6 hr of treatment.
The effect of ketoprofen on the induction of cytokine production by IL-1 and GPCR agonists was examined. The protocol also tested the effects of IL-1 concentration dependence on the IL-6 steady state induction. Synoviocyte cultures were exposed to indicated concentrations of IL-1 and GPCR agonists. Culture supernatants were collected and replaced with fresh media aliquots containing the same agonist additions at 8-hr intervals. PGE2, IL-6, and IL-8 in the supernatants were assayed as described.

The conditions of series [7]: in vivo, cited from earlier work.
Series [8] concerns the target T1, Type I IL-1R (Homo sapiens, UniProt P14778).
T1 sequence (P14778 18-569): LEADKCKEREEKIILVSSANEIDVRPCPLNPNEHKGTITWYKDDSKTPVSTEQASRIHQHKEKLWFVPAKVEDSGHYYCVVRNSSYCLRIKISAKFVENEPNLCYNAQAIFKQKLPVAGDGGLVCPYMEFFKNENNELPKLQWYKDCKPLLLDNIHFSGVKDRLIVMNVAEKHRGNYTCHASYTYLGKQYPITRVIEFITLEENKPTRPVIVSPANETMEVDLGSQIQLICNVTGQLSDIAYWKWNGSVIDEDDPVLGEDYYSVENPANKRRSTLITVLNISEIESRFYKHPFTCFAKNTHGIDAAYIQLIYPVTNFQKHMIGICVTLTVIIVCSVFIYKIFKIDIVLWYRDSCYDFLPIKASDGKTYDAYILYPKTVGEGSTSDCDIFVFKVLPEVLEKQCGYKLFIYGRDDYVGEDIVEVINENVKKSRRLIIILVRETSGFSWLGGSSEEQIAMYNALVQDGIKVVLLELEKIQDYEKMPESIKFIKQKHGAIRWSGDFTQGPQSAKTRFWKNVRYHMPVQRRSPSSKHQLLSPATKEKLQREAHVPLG
To be noted: in vitro efficacy; cited from earlier work.

For a further series, the target named is BMP-4 receptors. The following applies: 125I-BMP-4; read-out: apparent dissociation constant; cited from earlier work.
For series [9], the target named is T1, Type I IL-1R. The following applies: cells that express the Type I IL-1R; cited from earlier work.

Take `c1cnc2c(c1)ccc1cccnc12` [1,10-o-phenanthroline]: in series [1], the “effect on penetration of cartilage by RSF cells” value is given as “substantially inhibited”.
For the compound `Cn1c2ccccc2c2c3c(c4c5ccccc5n(CCC#N)c4c21)CNC3=O` [G-6203], the IC50 in the series with PKC was 2 to 10 µM.
For the compound `CC(=N)NCCCC[C@H](N)C(=O)O` [L-NIL], in the series on experimental OA, the “effect on progression of experimental OA” value is listed as “reduces the progression of experimental OA”.
For `CN(C)C[C@H]1CCn2c(c(C3=C(c4cn(C)c5ccccc45)C(=O)NC3=O)c3ccccc32)C1` [RO 32-0432], the “activity on PGE2 production” value in the series on NFκB activation is “inactive”.
For the compound `C[S+]([O-])c1ccc(-c2nc(-c3ccc(F)cc3)c(-c3ccncc3)[nH]2)cc1` (stereo not shown) [SB203580, 4-(4-fluorophenyl)-2-(4-methylsulfinylphenyl)-5-(4-pyridyl)imidazole], the antiarthritic activity entry in series [2] is reported as “Antiarthritic activity”. The “effect on paw inflammation” value in the series with paw inflammation was “significant inhibition of paw inflammation”.
For `O=C1CCNC(=O)c2[nH]ccc21` [aldisine], the “activity on PGE2 production” value in the series on NFκB activation was “inactive”.
On to `CCc1cccc2c3c([nH]c12)C(CC)(CC(=O)O)OCC3` (stereo not shown) [etodolac], for which the IC50 in series [3] came out at 15.2 ± 4.6 nM.
With `NCCc1c[nH]cn1` [histamine], in series [4], the “fold increase in PGE2 production compared to IL-1 primed cells receiving no GPCR agonist” value is reported as 5–10 fold.
Consider `COc1ccc2c(c1)c(CC(=O)O)c(C)n2C(=O)c1ccc(Cl)cc1` [indomethacin], for which the concentration for half-maximal inhibition (IC50) in [3] amounted to 3.2 ± 1.5 nM.
In the case of `CC(C(=O)O)c1cccc(C(=O)c2ccccc2)c1` (stereo not shown) [ketoprofen], the concentration for half-maximal inhibition (IC50) in [3] was determined as 4.5 ± 0.8 nM. For the same compound, in series [5] (histamine 100 μM or isoproterenol 1.0 μM plus IL-1), the “effect on IL-6 production in histamine or isoproterenol/IL-1 co-stimulated samples” value was “inhibited”. In series [5] (Homo sapiens, 1.0 pg/ml IL-1, 16 hr, read-out: inhibition of IL-1-elicited IL-6 production), the inhibition at 0.75 µM is ≤ 50%. In addition, the “effect on IL-8 production in response to IL-1” value in series [6] is “reduces”.
As for `O=C(c1ccccc1)c1ccc2n1CCC2C(=O)O` (stereo not shown) [ketorolac], in series [3], the IC50 was 2.2 ± 0.4 nM.
Consider `CC(C)C[C@H](NP(=O)(O)O[C@@H]1O[C@@H](C)[C@H](O)[C@@H](O)[C@H]1O)C(=O)N[C@@H](Cc1c[nH]c2ccccc12)C(=O)O` [phosphoramidon], for which the “effect on penetration of cartilage by RSF cells” value in [1] is listed as “substantially inhibited”.
As to Ac-FEWTPGWYQJY-NH2 [AF11567], the plasma half-life in [7] was 2.3 to 2.6 h.
For the compound Ac-FEWTPGWYQJYALPL-NH2 [AF12198], the IC50 on Type I IL-1R [8] was 0.5 to 2 nM. In series [7] (iv), the metabolism result is recorded as “rapid metabolism”.
Turning to “BMP-4: bone morphogenetic protein, member of the TGF-β superfamily”, at BMP-4 receptors, the Kd was 0.11 nM.
As to “IL-1Ra: naturally occurring secreted, soluble ligand that binds to IL-1 receptors; 22 kD protein”, the “molar excess required to inhibit IL-1 biological responses” value with Type I IL-1R [9] is 10–100 fold.
Consider calphostin C, for which the IC50 with PKC was 50 µM.
